Here are results for 43 compounds from patent publication US12162857B2, “Antiviral compounds” (priority 2022, dated 2024).

For the assay, the system named is HMPV A2 TN/94-49. Nature of the assay: HMPV antiviral assay: LLC-MK2 cells, ATP-Lite readout. The format is cell-based. Particulars: LLC-MK2, 168 h, MOI 0.005, 7 days incubation. How it is done: In vitro HMPV antiviral activity was evaluated using the clinical isolate A2 strain TN 94-49 and LLC-MK2 cells (ATCC #CCL-7), an immortalized kidney epithelial cell line from Macaca mulatta. Compounds were resuspended in dimethyl sulfoxide (DMSO) at 10 mM, serially diluted and added to a 384-well source plate. Subsequently, the compounds were diluted and transferred onto 384-well assay plates using the Echo-650 automated liquid handling system (Beckman Coulter, Indiana). The test compounds were assessed in duplicate at a top concentration of 2 μM followed by 2.5-fold serial dilutions to give a total of 10 concentration points. DMSO control wells were also included on the assay plates and were either infected or not, acting as positive and negative controls. A2 TN 94-49 virus infections were performed in-suspension with LLC-MK2 cells. The cells were washed twice with PBS and removed from the cell-culture flask with 0.25% trypsin-EDTA (Thermo Fisher Scientific, MA). The trypsin-EDTA was inactivated by resuspending in 2% fetal bovine serum (FBS) and OptiMEM (ThermoFisher Scientific, MA) containing 1% penicillin-streptomycin. Cells were pelleted by centrifuging for 5 minutes at 800 rpm, the supernatant was removed, and cells were re-suspended and washed in PBS plus 100 μg/mL CaCl2). This step was performed twice. Cells were then re-suspended in serum-free (SF)-OptiMEM containing 4 μg/mL TPCK-Trypsin (Sigma Aldrich, MO), 1% penicillin-streptomycin (ThermoFisher Scientific, MA) and 100 μg/mL CaCl2). Cells were counted and seeded at a density of 5,000 cells/well, 12.5 μL/well. Virus infections were done at a multiplicity of infection (MOI) of 0.005 with 12.5 μL added per well. Virus infections were performed in infection media which contained SF-OptiMEM, 100 μg/mL CaCl2) and 1% penicillin-streptomycin. HMPV viral stocks are suspended in infection media+5% glycerol, thus an equal volume of infection media+5% glycerol was added to uninfected wells to equalize the final % glycerol across all wells of the assay plate. The final concentration of TPCK-trypsin was 2 μg/mL. The assay plates were incubated at 37° C., 5% CO2 for 7 days. After 7 days incubation, 12.5 μL of ATP-Lite (PerkinElmer, MA) was added to each well and the raw luminescence values were determined using the Envision 2104 (Perkin Elmer, MA). The average of the raw luminescence values for the cells and virus only positive control wells was subtracted from all conditions tested and the percent cell health was determined by dividing these values by the average of the cells only negative control wells. EC50 values were then calculated by non-linear regression using a four-parameter curve logistic equation. The curve fit model employed was XLFit Dose Response One Site Model 200: y=(A+(B/(1+((x/C)^D)))), where A is the minimum y value, B is the maximum y value, C is the log EC50 value, and D is the slope factor. […] EC50 ranges are as follows: A<1 μM; B>1 μM.
For orientation: EC50 means the midpoint of the concentration-response curve. As to `COc1cc(C(=O)NC[C@@](O)(c2cccc(F)c2)c2cc(C(C)(C)O)c(F)c(-c3ccc(F)c(Cl)c3Cl)n2)cc2sc(C)nc12` [Example 107], the concentration giving a half-maximal response (EC50) is less than 1000 nM.
Then `COc1cc(C(=O)NC[C@@](O)(c2cccc(F)c2)c2cc(C(C)(C)O)c(F)c(-c3ccc4c(c3Cl)OC(F)(F)O4)n2)cc2sc(C)nc12` [Example 108], with less than 1000 nM.
To `COc1cc(C(=O)NC[C@@](O)(c2cccc(F)c2)c2cc(C(C)(C)O)c(F)c(-c3ccc4c(c3Cl)OC(F)(F)O4)n2)cc2cn(C3CC3)nc12` [Example 109] belongs less than 1000 nM; to `CC(C)(O)c1cc([C@@](O)(CNC(=O)c2cc(Cl)c3nn(C4CC4)cc3c2)c2cccc(F)c2)nc(-c2ccc3c(c2Cl)OC(F)(F)O3)c1F` [Example 110], greater than 1000 nM; to `COc1cc(C(=O)NC[C@@](O)(c2cccc(F)c2)c2cc(C(C)(C)O)c(F)c(-c3ccc4c(c3Cl)OC(F)(F)O4)n2)cc2cn(C(F)F)nc12` [Example 111], less than 1000 nM.
To `COc1cc(C(=O)NC[C@@](O)(c2cccc(F)c2)c2cc(C(C)(C)O)c(F)c(-c3ccc4c(c3Cl)OC(F)(F)O4)n2)cc2cc(C3CC3)nn12` [Example 112] belongs less than 1000 nM.
In turn, `COc1cc(C(=O)NC[C@](O)(c2cc(C(C)(C)O)c(F)c(-c3cc(Cl)c(F)cc3F)n2)c2cccs2)cc2cn(C3CC3)nc12` [Example 113] displayed a half-maximal effective concentration (EC50) of less than 1000 nM.
To `COc1cc(C(=O)NC[C@](O)(c2cc(C(C)(C)O)c(F)c(-c3cc(Cl)c(F)cc3F)n2)c2cccs2)cc2cn(C(F)F)nc12` [Example 114] belongs less than 1000 nM.
Then `COc1cc(C(=O)NC[C@](O)(c2cc(C(C)(C)O)c(F)c(-c3cc(Cl)c(F)cc3F)n2)c2cccs2)cc2sc(C)nc12` [Example 115], with less than 1000 nM.
Then `CCC(O)(CC)c1cc([C@@](O)(CNC(=O)c2cc(OC)c3nn(C4CC4)cc3c2)c2ccccc2)nc(-c2cc(Cl)c(F)cc2F)c1F` [Example 116], with less than 1000 nM; and `CCC(O)(CC)c1cc([C@@](O)(CNC(=O)c2cc(OC)c3nn(C(F)F)cc3c2)c2ccccc2)nc(-c2cc(Cl)c(F)cc2F)c1F` [Example 117], with greater than 1000 nM; and `COc1cc(C(=O)NC[C@](O)(c2cc(C(C)(C)O)c(F)c(-c3ccc(F)c(Cl)c3F)n2)C2CC2)cc2cn(C(F)F)nc12` [Example 118], with less than 1000 nM.
For `COc1cc(C(=O)NC[C@](O)(c2cc(C(C)(C)O)c(F)c(-c3ccc(F)c(Cl)c3F)n2)C2CC2)cc2cn(C3CC3)nc12` [Example 119], the EC50 was less than 1000 nM.
`COc1cc(C(=O)NC[C@](O)(c2cc(C(C)(C)O)c(F)c(-c3ccc(F)c(Cl)c3F)n2)C2CC2)cc2cn(C3(F)CC3)nc12` [Example 120] came in with an EC50 of less than 1000 nM.
Then `CC(C)(O)c1cc([C@@](O)(CNC(=O)c2cc(OC3CC3)c3nn(C4CC4)cc3c2)C2CC2)nc(-c2ccc(F)c(Cl)c2F)c1F` [Example 121], with less than 1000 nM.
As to `COc1cc(C(=O)NC[C@@](O)(c2ccccc2)c2cc(C(C)(C)O)c(F)c(-c3ccc(F)c(Cl)c3F)n2)cc2cn(C(F)F)nc12` [Example 122], the concentration for a half-maximal effect (EC50) was less than 1000 nM.
To `COc1cc(C(=O)NC[C@@](O)(c2ccccc2)c2cc(C(C)(C)O)c(F)c(-c3ccc(F)c(Cl)c3F)n2)cc2cn(C3(F)CC3)nc12` [Example 124] belongs less than 1000 nM; to `CC(C)(O)c1cc([C@@](O)(CNC(=O)c2cc(OC3CC3)c3nn(C4CC4)cc3c2)c2ccccc2)nc(-c2ccc(F)c(Cl)c2F)c1F` [Example 125], less than 1000 nM; to `COc1cc(C(=O)NC[C@@](O)(c2ccccc2)c2nc(-c3cc(Cl)c(F)cc3F)c(F)c(C(C)(C)O)c2F)cc2cn(C(F)F)nc12` [Example 128], less than 1000 nM.
Then `COc1cc(C(=O)NC[C@@](O)(c2ccccc2)c2nc(-c3cc(Cl)c(F)cc3F)c(F)c(C(C)(C)O)c2F)cc2cc(C3CC3)nn12` [Example 129], with less than 1000 nM; and `COc1cc(C(=O)NC[C@@](O)(c2ccccc2)c2nc(-c3cc(Cl)c(F)cc3F)c(F)c(C(C)(C)O)c2F)cc2sc(C)nc12` [Example 130], with less than 1000 nM; and `COc1cc(C(=O)NC[C@@](O)(c2ccccc2)c2cc(C(C)(C)O)c(Cl)c(-c3cc(Cl)c(F)cc3F)n2)cc2sc(C)nc12` [Example 131], with greater than 1000 nM.
Then `CC(C)(O)c1cc([C@@](O)(CNC(=O)c2cc(Cl)c3nn(C4CC4)cc3c2)c2ccccc2)nc(-c2cc(Cl)c(F)cc2F)c1Cl` [Example 133], with greater than 1000 nM; and `COc1cc(C(=O)NC[C@@](O)(c2ccccc2)c2cc(C(C)(C)O)c(Cl)c(-c3cc(Cl)c(F)cc3F)n2)cc2cn(C(F)F)nc12` [Example 134], with greater than 1000 nM.
For the compound `COc1cc(C(=O)NC[C@@](O)(c2ccccc2)c2cc(C(C)(C)O)c(Cl)c(-c3ccc4c(c3Cl)OC(F)(F)O4)n2)cc2sc(C)nc12` [Example 135], the 50% effective concentration (EC50) was greater than 1000 nM.
To `CC(C)(O)c1cc([C@@](O)(CNC(=O)c2cc(Cl)c3nn(C4CC4)cc3c2)c2ccccc2)nc(-c2ccc3c(c2Cl)OC(F)(F)O3)c1Cl` [Example 137] belongs greater than 1000 nM.
To `COc1cc(C(=O)NC[C@@](O)(c2ccccc2)c2cc(C(C)(C)O)c(Cl)c(-c3ccc4c(c3Cl)OC(F)(F)O4)n2)cc2cn(C(F)F)nc12` [Example 138] belongs less than 1000 nM; to `COc1cc(C(=O)NC[C@@](O)(c2ccccc2)c2cc(C(C)(C)O)c(Cl)c(-c3cccc(Cl)c3Cl)n2)cc2sc(C)nc12` [Example 139], less than 1000 nM.
Regarding `COc1cc(C(=O)NC[C@@](O)(c2ccccc2)c2cc(C(C)(C)O)c(Cl)c(-c3cccc(Cl)c3Cl)n2)cc2cn(C3CC3)nc12` [Example 140], the EC50 was greater than 1000 nM.
Then `CC(C)(O)c1cc([C@@](O)(CNC(=O)c2cc(Cl)c3nn(C4CC4)cc3c2)c2ccccc2)nc(-c2cccc(Cl)c2Cl)c1Cl` [Example 141], with greater than 1000 nM; and `COc1cc(C(=O)NC[C@@](O)(c2ccccc2)c2cc(C(C)(C)O)c(Cl)c(-c3cccc(Cl)c3Cl)n2)cc2cn(C(F)F)nc12` [Example 142], with greater than 1000 nM.
Then `COc1cc(C(=O)NC[C@@](O)(c2ccccc2)c2cc(C(C)(C)O)cc(-c3cccc(Cl)c3Cl)n2)cc2sc(C)nc12` [Example 147], with less than 1000 nM; and `COc1cc(C(=O)NC[C@@](O)(c2ccccc2)c2cc(C(C)(C)O)cc(-c3cccc(Cl)c3Cl)n2)cc2cn(C3CC3)nc12` [Example 148], with less than 1000 nM.
To `CC(C)(O)c1cc(-c2cccc(Cl)c2Cl)nc([C@@](O)(CNC(=O)c2cc(Cl)c3nn(C4CC4)cc3c2)c2ccccc2)c1` [Example 149] belongs less than 1000 nM; to `COc1cc(C(=O)NC[C@@](O)(c2ccccc2)c2cc(C(C)(C)O)cc(-c3cccc(Cl)c3Cl)n2)cc2cn(C(F)F)nc12` [Example 150], less than 1000 nM; to `COc1cc(C(=O)NC[C@@](O)(c2ccccc2)c2cc(C(C)(C)O)cc(-c3ccc(F)c(Cl)c3Cl)n2)cc2sc(C)nc12` [Example 151], less than 1000 nM.
Consider `COc1cc(C(=O)NC[C@@](O)(c2ccccc2)c2cc(C(C)(C)O)cc(-c3ccc(F)c(Cl)c3Cl)n2)cc2cn(C3CC3)nc12` [Example 152], for which the EC50 is less than 1000 nM.
`CC(C)(O)c1cc(-c2ccc(F)c(Cl)c2Cl)nc([C@@](O)(CNC(=O)c2cc(Cl)c3nn(C4CC4)cc3c2)c2ccccc2)c1` [Example 153] returned a half-maximal effective concentration (EC50) of less than 1000 nM.
`COc1cc(C(=O)NC[C@@](O)(c2ccccc2)c2cc(C(C)(C)O)cc(-c3ccc(F)c(Cl)c3Cl)n2)cc2cn(C(F)F)nc12` [Example 154] gave an EC50 of less than 1000 nM.
Then `COc1cc(C(=O)NC[C@@](O)(c2ccccc2)c2cc(C(C)(C)O)c(Cl)c(-c3ccc4c(c3Cl)OC(F)(F)O4)n2)cc2cc(C3CC3)nn12` [Example 155], with less than 1000 nM; and `COc1cc(C(=O)NC[C@@](O)(c2ccccc2)c2cc(C(C)(C)O)cc(-c3ccc4c(c3Cl)OC(F)(F)O4)n2)cc2cn(C3CC3)nc12` [Example 156], with less than 1000 nM; and `COc1cc(C(=O)NC[C@@](O)(c2ccccc2)c2cc(C(C)(C)O)cc(-c3ccc4c(c3Cl)OC(F)(F)O4)n2)cc2sc(C)nc12` [Example 157], with less than 1000 nM.
Then `COc1cc(C(=O)NC[C@@](O)(c2ccccc2)c2cc(C(C)(C)O)cc(-c3ccc4c(c3Cl)OC(F)(F)O4)n2)cc2cn(C(F)F)nc12` [Example 158], with less than 1000 nM.
